“Also recorded” adds a separate entry of the source.
Experiments:
[1] = Stability at different pH values (UV-vis absorbance); assay type: physicochemical; details: for pH stability: 100 µM buffered solutions, pH 2 to 8
Protocol: Buffer solutions with pH values between 2 and 8 were prepared and their pH was measured. The buffer solutions were prepared according to Portuguese Pharmacopeia 11.0 specifications. Each compound solution (100 µM) buffered at a specific pH was prepared in triplicate. The solutions were stored at room temperature and protected from light. Aliquots of 3.00 mL were transferred to quartz cuvettes at specific time points, and their absorbance was measured by ultraviolet/visible (UV–vis) spectrophotometry. The blank for each pH corresponded to 3.00 mL of the respective buffer.

[2] = test system: HaCaT cells; assay: Cellular metabolic activity, resazurin reduction assay, HaCaT; assay type: cell-based, human; details: HaCaT keratinocytes, concentrations examined (abstract: up to 500 µM)
Protocol: (§1) The human keratinocytes (HaCaT, CLS 300493, Eppelheim, Germany) cell line was cultured with Dulbecco’s Modified Eagle’s Medium (DMEM) (Sigma-Aldrich, St. Louis, MO, USA), supplemented with 10% (v/v) of heat-inactivated fetal bovine serum (FBS), 1% (v/v) antibiotic solution (from a 10,000 U/mL penicillin and 10,000 μg/mL streptomycin stock) (Gibco, Carlsbad, CA, USA), 3.7 g/L sodium bicarbonate, and 1 mM sodium pyruvate (Sigma-Aldrich, St. Louis, MO, USA). The cell culture of keratinocytes was detached with EDTA solution 1X (Sigma-Aldrich, St. Louis, MO, USA) when the cells reached 70–80% confluence in cell culture flasks. The mouse macrophage cell line (RAW 264.7, ATCC TIB-71, Manassas, VA, USA) was cultured in DMEM supplemented with 10% (v/v) non-inactivated FBS, 1% (v/v) antibiotic solution, 1.5 g/L sodium bicarbonate, and 1 mM sodium pyruvate. Macrophages were mechanically detached with a cell scraper and subcultured in (1:10) proportion of cellular suspension to a final volume of DMEM. […] The metabolic activity of human epidermal keratinocytes (HaCaT), murine macrophages (RAW264.7), and human monocytes (THP-1) was assessed using a resazurin reduction assay. […] The absorbance was read at 570 and 620 nm using a SpectraMax Plus 384 absorbance microplate spectrophotometer (Molecular Devices, San Jose, CA, USA). […]

[3] = test system: RAW264.7 cells; assay: Cellular metabolic activity, resazurin reduction assay, RAW264.7; assay type: cell-based, mouse; details: RAW264.7 macrophages, concentrations examined (abstract: up to 500 µM)
Protocol: as §1

[4] = test system: NO production in LPS-stimulated RAW 264.7 macrophages; assay: NO production in LPS-stimulated macrophages (Griess assay); assay type: cell-based, mouse; details: LPS 100 ng/mL, 24 h
Protocol: The human keratinocytes (HaCaT, CLS 300493, Eppelheim, Germany) cell line was cultured with Dulbecco’s Modified Eagle’s Medium (DMEM) (Sigma-Aldrich, St. Louis, MO, USA), supplemented with 10% (v/v) of heat-inactivated fetal bovine serum (FBS), 1% (v/v) antibiotic solution (from a 10,000 U/mL penicillin and 10,000 μg/mL streptomycin stock) (Gibco, Carlsbad, CA, USA), 3.7 g/L sodium bicarbonate, and 1 mM sodium pyruvate (Sigma-Aldrich, St. Louis, MO, USA). The cell culture of keratinocytes was detached with EDTA solution 1X (Sigma-Aldrich, St. Louis, MO, USA) when the cells reached 70–80% confluence in cell culture flasks. The mouse macrophage cell line (RAW 264.7, ATCC TIB-71, Manassas, VA, USA) was cultured in DMEM supplemented with 10% (v/v) non-inactivated FBS, 1% (v/v) antibiotic solution, 1.5 g/L sodium bicarbonate, and 1 mM sodium pyruvate. Macrophages were mechanically detached with a cell scraper and subcultured in (1:10) proportion of cellular suspension to a final volume of DMEM. The human monocytic cell line THP-1 (ATCC® TIB-202™, American Type Culture Collection, Manassas, VA, USA) was cultivated in RPMI 1640 supplemented with 10% inactivated FBS, 25 mM (D)-glucose, 10 mM HEPES, 1 mM sodium pyruvate, 100 U/mL penicillin, and 100 μg/mL streptomycin, and maintained at a cell density of 0.4 × 10^6 cells/mL. Cells were subcultured every 2 or 3 days and maintained in culture for 2–3 months, according to ATCC® instructions. Nitric oxide (NO) production was measured by quantifying the accumulation of nitrites in culture supernatants using the Griess assay. […] After a 30 min incubation period at room temperature, protected from light, the absorbance was read at 550 nm using a microplate spectrophotometer. The concentration of nitrites present in the supernatants was determined by interpolation of the absorbance of each sample in a sodium nitrite standard curve. The results of four independent experiments, in duplicate, were expressed as the percentage of NO production by cells versus the concentration of the chemicals compared with LPS (100%).

[5] = test system: human fibroblasts; details: ref [15],[16],[17]; cited from earlier work
[6] = Cellular metabolic activity, resazurin reduction assay, HaCaT; assay type: cell-based, human; details: human, HaCaT keratinocytes; HaCaT, resazurin, 24 h, concentrations greater than or equal to 500 µM; read-out: cell viability
Protocol: as §1

[7] = test system: B16 cells; details: 4 mM, compared to 3-O-ethyl ascorbic acid, ref [15],[16],[17]; cited from earlier work

variations in absorbance ([1]; acidic and neutral pH, 100 µM aqueous buffer) | SMILES | pH stability [1] | effect on cell viability / metabolic activity [2] | effect on cell viability / metabolic activity [3] | effect on NO production [4] | reduction of NO production ([4]; relative to LPS = 100%) | collagen production [5] | viability at 24 h [6] | lightening effect [7]
– | O=C1OC(C(COS(=O)(=O)O)OS(=O)(=O)O)C(OS(=O)(=O)O)=C1OC1OC(COS(=O)(=O)O)C(OS(=O)(=O)O)C(OS(=O)(=O)O)C1OS(=O)(=O)O [AAGS, 2-O-α-D-glucopyranosyl-L-ascorbic acid persulfate] | improved stability covering a larger range of pH values (pH = 2–6) | did not adversely impact cell viability; also recorded: did not affect the metabolic activity | did not adversely impact cell viability; also recorded: did not affect the metabolic activity | – | – | – | – | –
> 90% | O=C1O[C@H]([C@@H](O)CO)C(O)=C1O [AA, Ascorbic acid] | unstable at acidic and neutral pH | – | – | inhibited NO production | 30% | – | – | –
– | O=C1O[C@H]([C@@H](O)CO)C(O)=C1O[C@H]1O[C@H](CO)[C@@H](O)[C@H](O)[C@H]1O [AAG, 2-O-α-D-glucopyranosyl-L-ascorbic acid] | – | – | – | inhibited NO production | – | > 12 µg/well | > 70% | better lightening effect

Reference: PMC11477482 (Molecules, 2024)
